# Assay results published in patent US12378194B2, “N, n-dimethyltryptamine salts and crystalline salt forms” (ATAI Therapeutics, Inc., priority 2021, dated 2025).
# Experiments:
# [1] = Physical appearance and form stability at high relative humidity; type: physicochemical; conditions: for Hygroscopicity [physical appearance at high RH]: 90% RH, RT
# [2] = Dynamic vapor sorption (DVS) hygroscopicity; type: physicochemical; conditions: for Hygroscopicity [DVS], grade in words: DVS 5% to 95% RH; for DVS wt. loss 95% to 5% RH: desorption 95% to 5% RH; for DVS wt. gain 5% to 95% RH / DVS water uptake 5% to 95% RH: sorption 5% to 95% RH; for DVS water uptake 5% to 95% RH / DVS water uptake 5% to 75% RH / DVS water uptake 75% to 95% RH: mol water per mol; for DVS hysteresis: sorption vs desorption; for DVS wt. loss 75% to 5% RH: desorption 75% to 5% RH; for DVS wt. loss 95% to 75% RH: desorption 95% to 75% RH; for DVS wt. gain 5% to 75% RH / DVS water uptake 5% to 75% RH: sorption 5% to 75% RH; for DVS wt. gain 75% to 95% RH / DVS water uptake 75% to 95% RH: sorption 75% to 95% RH
# [3] = Brito-da-Costa et al 2020; cited from earlier work
# [4] = free base; cited from earlier work
structure (smiles),measurement,setting,value
CN(C)CCc1c[nH]c2ccccc12.O=C(O)/C=C/C(=O)O [DMT Fumarate Form A],Hygroscopicity [physical appearance at high RH],[1]; 7 days,white solid
same,"Hygroscopicity [DVS], grade in words",[2],limited
same,"Hygroscopicity [DVS], grade in words",[2]; listed as Fumarate A,Limited hygroscopicity
same,DVS wt. loss 95% to 5% RH,[2],0.679% wt.
same,DVS wt. loss 95% to 5% RH,[2]; listed as Fumarate A,95% to 5%: 0.679% wt. loss some
same,DVS wt. gain 5% to 95% RH,[2],0.573% wt.
same,DVS wt. gain 5% to 95% RH,[2]; listed as Fumarate A,0.573 % wt.
same,DVS water uptake 5% to 95% RH,[2],(0.1 mol/mol
same,DVS water uptake 5% to 95% RH,[2]; listed as Fumarate A,0.1 mol/mol
same,DVS hysteresis,[2],hysteresis
CN(C)CCc1c[nH]c2ccccc12.O=C(O)C[C@H](O)C(=O)O [DMT Malate Form A],Hygroscopicity [physical appearance at high RH],[1]; 7 days,white solid
same,"Hygroscopicity [DVS], grade in words",[2],significant
same,"Hygroscopicity [DVS], grade in words",[2]; listed as Malate A,Significant hygroscopicity
same,DVS wt. loss 75% to 5% RH,[2],1.37% wt. loss
same,DVS wt. loss 75% to 5% RH,[2]; listed as Malate A,75% to 5%: 1.37% wt loss % wt.
same,DVS wt. loss 95% to 75% RH,[2],9.59% wt. loss
same,DVS wt. loss 95% to 75% RH,[2]; listed as Malate A,95% to 75%: 9.59% wt. loss
same,DVS wt. gain 5% to 75% RH,[2],1.21% wt. gain
same,DVS wt. gain 5% to 75% RH,[2]; listed as Malate A,1.21 % wt.
same,DVS water uptake 5% to 75% RH,[2],(0.4 mol/mol
same,DVS water uptake 5% to 75% RH,[2]; listed as Malate A,0.4 mol/mol
same,DVS wt. gain 75% to 95% RH,[2],9.75% wt. gain
same,DVS wt. gain 75% to 95% RH,[2]; listed as Malate A,9.75 % wt.
same,DVS water uptake 75% to 95% RH,[2],(1.7 mol/mol
same,DVS water uptake 75% to 95% RH,[2]; listed as Malate A,1.7 mol/mol
CN(C)CCc1c[nH]c2ccccc12.O=C(O)CCC(=O)O [DMT Succinate Form A],Hygroscopicity [physical appearance at high RH],[1]; 7 days,white solid
same,Physical form after water absorption,[1]; after water absorption,preservation of the physical form
same,"Hygroscopicity [DVS], grade in words",[2],low
same,"Hygroscopicity [DVS], grade in words",[2]; listed as DMT succinate Form A,least hygroscopic
same,"Hygroscopicity [DVS], grade in words",[2]; listed as Succinate A,Low hygroscopicity
same,DVS wt. loss 95% to 5% RH,[2],0.175% wt.
same,DVS wt. loss 95% to 5% RH,[2]; listed as Succinate A,95% to 5%: 0.175% wt. loss some
same,DVS wt. gain 5% to 95% RH,[2],0.171% wt.
same,DVS wt. gain 5% to 95% RH,[2]; listed as Succinate A,0.171 % wt.
same,DVS water uptake 5% to 95% RH,[2],(0.03 mol/mol
same,DVS water uptake 5% to 95% RH,[2]; listed as Succinate A,0.03 mol/mol
same,DVS hysteresis,[2],hysteresis
CN(C)CCc1c[nH]c2ccccc12.O=S(=O)(O)O [DMT Sulfate Form A],Hygroscopicity [physical appearance at high RH],[1]; 1 day,oil/deliquesced
"CN(C)CCc1c[nH]c2ccccc12 [DMT free base, N,N-dimethyltryptamine]",Degradation rate in solution,[3],fast degradation rate
same,Solubility in water,[4],extremely low
